The test system of data set [1] is carrageenin induced oedema in rat paw. The experiment in a line: carrageenin induced oedema in rat paw (antiinflammatory activity). Particulars: 75 mg/kg per os; for AREA Δ % (paw volume): control 243.3; for paw average volume, 30' / paw average volume, 1h / paw average volume, 2h / paw average volume, 3h / paw average volume, 6h / paw average volume, Basal: 5 animals. The format is in vivo. The protocol: The antiinflammatory activity of MR-[…] in comparison with acetylsalicylic acid was determined by the test of carrageenin induced oedema in rat paw, according to the method of Winter, […], Ness. (Proc. Soc. Exp. Biol. Med., 111, 544-547, 1962). […] The paw volume was determined using an apparatus supplied by U. Basile Ltd.
(In general: Carrageenan injected into the paw causes an acute inflammation.)

Data set [2] is described as follows: tail-flick test (analgesic activity). It counts as in vivo. Particulars: 75 mg/kg os; for AREA Δ % (tail-flick): control 170.45. As to the method: The analgesic activity was determined according to the tail-flick test, employing an apparatus supplied by Socrel Ltd., Milano, Italy.
In general terms: In hot-plate and tail-flick tests a longer latency is read as antinociception.

The subject of the next data set is gastric mucosa. The experiment in a line: gastro-injuring action on the gastric mucosa. The format is in vivo, Male Sprague-Dawley rats. Particulars: oral, equimolecular doses, rats fasted 48 hours. As to the method: The action on the gastric mucosa of MR-Y134 in comparison with equimolecular doses of ASA was determined according to the method described by Pisanti and Volterra (I1 Farmaco, vol. 25, (2), 105).
The products were administered orally.
Male Sprague-Dawley rats were used fastened for 48 hours with water ad libitum.
The control group was administered with the solvent only (1% carboxymethylcellulose).

The nature of data set [3]: plasmatic kinetics in rat after oral administration. As to the method:
The plasmatic kynetic of acetylsalicylic acid in rat was compared after oral administration of equimolecular doses of MR-Y134 and […] (466 mg/kg MR-Y134 and 300 mg/kg ASA respectively).
The compounds were both administered in the form of 2% gum arabic suspension to rats fastened for 12 hours. Each animal was administered with 1.0 ml of solution.
The rats were killed at the following times: 1, 2, 4, 8, 12 hours after the administration of the compounds.
The blood sample was drawn in heparin.

The structures appear in SMILES notation.

For `CC(=O)Oc1ccccc1C(=O)O` [ASA, acetylsalicylic acid], in data set [1], the “% inhibition versus control (area, paw oedema)” value worked out at 53.41%; the “AREA Δ % (paw volume)” value was 113.35 Δ %; the “Percent variation of paw volume with respect to 0 time, 30'” value is on record as 9.71%; the paw average volume, 30' is 1.69 mL. Besides, in data set [1], the “Percent variation of paw volume with respect to 0 time, 1h” value is on record as 13.57%; the paw average volume, 1h is 1.75 mL; the “Percent variation of paw volume with respect to 0 time, 2h” value was 16.30%; the paw average volume, 2h is 1.79 mL. In data set [1], the “Percent variation of paw volume with respect to 0 time, 3h” value is listed as 17.71%; the paw average volume, 3h was determined as 1.81 mL; the “Percent variation of paw volume with respect to 0 time, 6h” value is recorded as 62.13%; the paw average volume, 6h was found to be 2.49 mL. Further, the paw average volume, Basal in data set [1] is 1.55 mL. In addition, in data set [2], the “% inhibition versus control (area, tail-flick)” value is 16.61%; the “AREA Δ % (tail-flick)” value is given as 142.13 Δ %; the “Percent variation of reaction time with respect to 0 time, 1h” value came to 23.01%; the “Reaction time, 1h” value was 7.16 s. For the same compound, in data set [2], the “Percent variation of reaction time with respect to 0 time, 3h” value is recorded as 26.66%; the “Reaction time, 3h” value worked out at 6.82 s; the “Percent variation of reaction time with respect to 0 time, 6h” value stood at 27.31%; the “Reaction time, 6h” value is 6.76 s. In addition, in data set [2], the “Reaction time, Basal” value came out at 9.30 s.
On to `O=C(Oc1ccccc1C(=O)O)c1cccs1` [MR-Y134, 2-(2-thenoyloxy)-benzoic acid], for which, in data set [1], the “% inhibition versus control (area, paw oedema)” value was found to be 47.51%; the “AREA Δ % (paw volume)” value is 127.69 Δ %; the “Percent variation of paw volume with respect to 0 time, 30'” value is 8.03%; the paw average volume, 30' was 1.71 mL. Further, in data set [1], the “Percent variation of paw volume with respect to 0 time, 1h” value amounted to 14.96%; the paw average volume, 1h is 1.82 mL; the “Percent variation of paw volume with respect to 0 time, 2h” value was found to be 14.18%; the paw average volume, 2h was 1.8 mL. Also, in data set [1], the “Percent variation of paw volume with respect to 0 time, 3h” value turned out to be 20.46%; the paw average volume, 3h is 1.9 mL; the “Percent variation of paw volume with respect to 0 time, 6h” value came out at 76.48%; the paw average volume, 6h was found to be 2.79 mL. Further, in data set [1], the paw average volume, Basal was found to be 1.58 mL. For the same compound, the “antiinflammatory activity compared with ASA” value in data set [1] (equal amounts by weight) is reported as “good antiinflammatory activity, substantially equal to the one of ASA”. Further, in data set [2], the “% inhibition versus control (area, tail-flick)” value was 50.18%; the “AREA Δ % (tail-flick)” value was 84.91 Δ %; the “Percent variation of reaction time with respect to 0 time, 1h” value is given as 9.36%; the “Reaction time, 1h” value worked out at 8.9 s. In data set [2], the “Percent variation of reaction time with respect to 0 time, 3h” value was 18.94%; the “Reaction time, 3h” value came to 7.96 s; the “Percent variation of reaction time with respect to 0 time, 6h” value was 15.68%; the “Reaction time, 6h” value came out at 8.28 s. The “Reaction time, Basal” value in data set [2] is 9.82 s. The “analgesic activity compared with ASA” value in data set [2] (equal amounts by weight) is “three times higher than the one of ASA”. Further, in the data set on gastric mucosa, the “gastro-injuring activity compared with ASA” value is recorded as “scarce gastro-injuring activity, substantially lower than the one of ASA”. Besides, in data set [3] (rat, in vivo, po), the “height of plasma peak compared with sodium salicylate” value was “substantially higher”; the “persistence in the bloodstream” value is “higher and more prolonged persistence in the bloodstream”; the “time of plasma peak” value is given as “third hour”.
With `O=C([O-])c1ccccc1O.[Na+]` [SODIUM SALICYLATE, sodium salicylate], the “time of plasma peak” value in data set [3] (oral, equimolecular doses) was “second hour”. Also, in data set [3] (rat, in vivo, po, 300 mg/kg), the concentration at 1 h was 362 µg/mL, the concentration at 2 h was determined as 534 µg/mL, the concentration at 4 h is 470 µg/mL and the concentration at 8 h is 456 µg/mL. Moreover, the concentration at 12 h in data set [3] (rat, in vivo, po, 300 mg/kg) was determined as 325 µg/mL.

Source of the values: patent US4511577A, “Derivatives of benzoic acid” (Media Research s.r.l., priority 1983, dated 1985).
